Data on seven compounds can be found in ChEMBL document CHEMBL1131966, “On topography and functionality in the B-D rings of cephalostatin cytotoxins” (Bioorg Med Chem Lett, 1999).

The subject of assay [1] is PC-3. Briefly: In vitro cytotoxicity against prostate PC-3 human tumors following a 2 day exposure. Format: functional. Conditions: PC-3, 48 h.
Assay [2] relates to HL-60. Kind of assay: In vitro cytotoxicity against HL-60 leukemia human tumors following a 2 day exposure. Format: functional. Conditions: HL-60, 48 h.
Assay [3] relates to LOX IMVI. Kind of assay: In vitro cytotoxicity against Skin LOX IMVI human tumors following a 2 day exposure. To be noted: 48 h. Format: functional.
The test system of assay [4] is Panel NCI-60 (60 carcinoma cell lines). Kind of assay: In vitro cytotoxicity against a subset of 60 cell lines (NCI-60) in human tumors following a 2 day exposure. Values in parentheses is the % cell lines affected. It counts as functional. Conditions: 48 h.
The subject of assay [5] is RXF 393. Briefly: In vitro cytotoxicity against Renal RXF-393 human tumors following a 2 day exposure. It counts as functional. To be noted: RXF 393, 48 h.
The test system of assay [6] is A549. Kind of assay: In vitro cytotoxicity against Lung A-549 human tumors following a 2 day exposure. Conditions: A549, 48 h. Format: functional.
The subject of assay [7] is NCI. Kind of assay: In vitro cytotoxicity against a subset of 10 cell lines (NCI-10) in human tumors following a 2 day exposure. Values in parentheses is the % cell lines affected. It counts as functional. To be noted: 48 h.
Assay [8] relates to MCF7. Kind of assay: In vitro cytotoxicity against Breast MCF-7 human tumors following a 2 day exposure. Format: functional. To be noted: 48 h.
Assay [9] concerns IGROV-1. Kind of assay: In vitro cytotoxicity against Ovary IGROVIg OVI human tumors following a 2 day exposure. It counts as functional. To be noted: IGROV-1, 48 h.
Assay [10] concerns HT-29. Kind of assay: In vitro cytotoxicity against Colon HT-29 human tumors following a 2 day exposure. Format: functional. To be noted: HT-29, 48 h.
Assay [11] has as its system SF-295. Briefly: In vitro cytotoxicity against CNS SF-295 human tumors following a 2 day exposure. It counts as functional. To be noted: SF-295, 48 h.
The test system of assay [12] is A498. Kind of assay: In vitro cytotoxicity against Renal A-498 human tumors following a 2 day exposure. It counts as functional. Conditions: A498, 48 h.
In assay [13] the test system is P388. Kind of assay: In vitro cytotoxicity against P388 leukemic cell line following a 6 day exposure. Format: functional, cell-based. To be noted: Mus musculus, P388, 144 h.

Bounds are passed on as bounds.

The term GI50 denotes the concentration at which growth is held to half of that of the control. Take `C[C@@H]1[C@]2(O[C@H]3C=C4[C@@H]5CC[C@H]6Cc7nc8c(nc7C[C@]6(C)[C@H]5C[C@@H](O)[C@]4(C)[C@]31O)C[C@@H]1CC[C@H]3C4=CC[C@@H]5[C@H](C)[C@@]6(OC[C@]45C(=O)C[C@@H]3[C@@]1(C)C8)OC(C)(C)C[C@H]6O)O[C@](C)(CO)C[C@H]2O` [CEPHALOSTATIN 1]: the GI50 in [1] is less than 0.1 nM; in [2], 0.2 nM; in assay [3], 0.4 nM; in assay [4], 1.2 nM; in assay [5] it was less than 0.1 nM; in assay [6], 0.4 nM. The GI50 is 0.8 nM in [7]; 2.5 nM in [8]; 10 nM in assay [9]; 6.3 nM in [10]; less than 0.1 nM in [11]; less than 0.1 nM in [12].

Take `C[C@H]1C2C(C[C@H]3C4CCC5Cc6nc7c(nc6C[C@]5(C)C4C[C@@H](O)[C@]23C)CC2CCC3C4=CC5O[C@]6(CC[C@](C)(O)CO6)[C@@H](C)C5(O)[C@@]4(C)[C@H](O)CC3[C@@]2(C)C7)OC12CCC(C)(C)O2` (stereo partly drawn) [14-EPI-7'-DEOXYRITTERAZINE B]: the 50% growth inhibitory concentration (GI50) in [1] is 40 nM; in assay [2], more than 660 nM; in assay [3] it was 45 nM; in assay [4], more than 105 nM; in assay [5], 4.1 nM; in assay [6] it was 76 nM. The concentration for 50% growth inhibition (GI50) in assay [7] is more than 55 nM; in [8], 56 nM; in assay [9] it was more than 1000 nM; in assay [10], more than 650 nM; in assay [11] it was 9.3 nM; in [12], more than 300 nM.

The term IC50 denotes the midpoint of a concentration-inhibition curve. A higher IC50 goes with weaker potency. As to `C[C@H]1C2C(CC3C4CCC5Cc6nc7c(nc6C[C@]5(C)C4CC(=O)[C@@]32C)CC2CC(=O)C3C4=CC5O[C@]6(CC[C@](C)(O)CO6)[C@@H](C)C5(O)[C@@]4(C)[C@H](O)CC3[C@@]2(C)C7)OC12CCC(C)(C)O2` (stereo partly specified), half-maximal inhibition in assay [13] (IC50) required 19 nM.

In [13], `CC(=O)O[C@H]1CC2Cc3nc4c(nc3C[C@]2(C)C2C[C@@H](O)[C@@]3(C)C(=CC5O[C@]6(CC[C@](C)(O)CO6)[C@@H](C)C53O)C21)CC1CCC2C(C[C@@H](O)[C@@]3(C)C2CC2OC5(CCC(C)(C)O5)[C@@H](C)C23)[C@@]1(C)C4` (stereo partly specified) yielded a concentration for half-maximal inhibition (IC50) of 96 nM.

Regarding `C[C@@H]1[C@@]2(CC[C@](C)(O)CO2)O[C@H]2C=C3[C@@H]4[C@@H](O)C[C@H]5Cc6nc7c(nc6C[C@]5(C)[C@H]4C[C@@H](O)[C@]3(C)[C@]21O)C[C@@H]1CC[C@H]2[C@H]3C[C@@H]4O[C@@]5(CCC(C)(C)O5)C[C@@H]4[C@@]3(C)C(=O)C[C@@H]2[C@@]1(C)C7` [RITTERAZINE H], in [13], 18 nM corresponded to half-maximal inhibition (IC50).

Take `C[C@@H]1C2(OC3C=C4C5CCC6Cc7nc8c(nc7C[C@]6(C)C5C[C@@H](O)[C@]4(C)C31O)CC1CCC3C4=CC5OC6(CCC(C)(C)O6)[C@@H](C)C5[C@@]4(C)[C@H](O)CC3[C@@]1(C)C8)O[C@](C)(CO)C[C@H]2O` (stereo partly specified) [RITTEROSTATIN]: the GI50 in assay [1] worked out at 1.8 nM; in assay [2] it was 1.6 nM; in assay [3] it was 9.7 nM; in assay [4] it was 14 nM; in assay [5], 0.1 nM; in assay [6] it was 7.4 nM. Further, the GI50 in assay [7] was found to be 3.8 nM; in assay [8], 3.4 nM; in assay [9] it was 140 nM; in assay [10] it was 65 nM; in assay [11] it was 0.99 nM; in [12], 3 nM.

On to `C[C@@H]1C2(OC3C=C4C5CCC6Cc7nc8c(nc7C[C@]6(C)C5C[C@@H](O)[C@]4(C)C31O)CC1CCC3C(CC(=O)[C@]45CO[C@@]6(OC(C)(C)C[C@H]6O)[C@@H](C)C4CCC35)[C@@]1(C)C8)O[C@](C)(CO)C[C@H]2O` (stereo partly specified) [DIHYDROCEPHALOSTATIN 1], for which the GI50 in [1] is 0.22 nM; in [2] it was 0.12 nM; in [3], 0.17 nM; in assay [4], 2.4 nM; in assay [5], less than 0.1 nM; in [6], 0.59 nM. The concentration for 50% growth inhibition (GI50) was 0.8 nM in assay [7]; 3.5 nM in assay [8]; 2.9 nM in [9]; 1.1 nM in assay [10]; less than 0.1 nM in assay [11]; 3.6 nM in [12].
